In assay [1] the target is T1, Autotaxin (Homo sapiens, UniProt Q13822). Kind of assay: Inhibition of human ATX using LPC as substrate measured after 2 hrs by fluorescence based choline release assay.
In assay [2] the target is T1, Autotaxin. Kind of assay: Inhibition of human ATX using FS-3 as substrate measured after 1 hrs by fluorescence based […] assay.
In assay [3] the target is T1, Autotaxin. Kind of assay: Inhibition of recombinant human ATX expressed in Sf9 cells using FS-3 as substrate measured after 1 hrs by fluorescence based assay.
The target of assay [4] is T1, Autotaxin. Kind of assay: Inhibition of ATX (unknown origin) using FS-3 as substrate.
Assay [5] concerns the target T1, Autotaxin. The assay is described as follows: Inhibition of human ATX using LPC as substrate preincubated for 30 mins followed by substrate addition measured after 90 mins by choline release assay.
The nature of assay [6]: Inhibition of hen egg white ATX using LPC as substrate preincubated for 30 mins followed by substrate addition measured after 90 mins by choline release assay. More on the design: species or system Gallus gallus.
Assay [7] concerns the target T1, Autotaxin. The assay is described as follows: Inhibition of human ATX using LPC as substrate assessed as choline release measured after 1.5 hrs by fluorescence based assay.
Assay [8] has as its target Autotaxin (Mus musculus, UniProt Q9R1E6). The assay is described as follows: Inhibition of ATX in mouse plasma. Format: cell-free.
Assay [9] concerns the target T1, Autotaxin. Kind of assay: Inhibition of ATX (unknown origin) using […] as substrate.
The target of assay [10] is T1, Autotaxin. The assay is described as follows: Inhibition of ATX in human blood. Format: tissue-based.

By IC50 is commonly meant the concentration at which inhibition is half-maximal.

As for `O=C(Nc1ccc(Br)cc1)c1cc(S(=O)(=O)N2CCCCC2)c(Cl)cc1Cl`, the IC50 at Autotaxin [1] was 0.023 µM; against Autotaxin [2], 0.021 µM.
Take `CS(=O)(=O)N(c1cc(C(=O)Nc2cc(F)c(Cl)c(F)c2)c(Cl)cc1Cl)C1CCOCC1`: at Autotaxin [3], the IC50 amounted to 0.218 µM.
On Autotaxin [4], `CCc1nc2c(C)cc(-c3ccc(C(=O)N4CCN(CCO)CC4)cc3)cn2c1NC(=O)OCc1ccc2c(c1)OCO2` yielded an IC50 of 0.0027 µM.
Turning to `N#CC1=C(N)Oc2n[nH]c(-c3ccc(OCc4ccc(F)cc4)cc3)c2[C@H]1c1ccc(Cl)c(Cl)c1`, the half-maximal inhibitory concentration (IC50) amounted to 0.134 µM against Autotaxin [5] and 0.087 µM in assay [6].
`CS(=O)(=O)N(c1cc(C(=O)Nc2cc(F)c(F)c(F)c2)c(Cl)cc1Cl)C1CCOCC1`: the IC50 on Autotaxin [3] was 0.219 µM.
Turning to `Cc1c(Sc2cccc(C(=O)O)c2F)c2ccc(Cl)c(F)c2n1C(=O)N1CC2(CC2)c2ccccc21`, the IC50 on Autotaxin [7] is 0.002 µM.
Turning to `CCCn1cc(-n2c(C)c(Sc3cccc(C(=O)O)c3F)c3ccc(Cl)c(F)c32)cn1`, the IC50 at Autotaxin [8] is 0.022 µM; against Autotaxin [9], 0.0011 µM; on Autotaxin [10], 0.0089 µM.
The compound `O=C(Nc1cccc(F)c1)c1cc(S(=O)(=O)N2CCOCC2)c(Cl)cc1Cl` displayed an IC50 against Autotaxin [1] of 0.0436 µM.

Source of the values: ChEMBL document CHEMBL5325466, “Recent research advances in ATX inhibitors: An overview of primary literature” (Bioorg Med Chem, 2023).
